Reference: PMC12116762, “Topobexin targets the Topoisomerase II ATPase domain for beta isoform-selective inhibition and anthracycline cardioprotection” (Nature Communications, 2025)
Values joined by “and” are separate entries in the source; they are usually repeats but may differ in a detail not shown here. Identical values can stand only once. Like-named read-outs stand apart in the source and are kept apart here.

What was measured:
recombinant human TOP2A [1] = biological target: T1, recombinant human TOP2A (Homo sapiens, UniProt P11388); experiment: DNA decatenation assay, recombinant TOP2A; format: biochemical
T1 construct: Using recombinant full-length human TOP2A and TOP2B enzymes; YFP (N, cleaved yes); made in house; host or cells: HEK293F
Experimental: The human topoisomerase II decatenation assay was performed to determine the inhibitory effects of BNS-22 and new compounds as previously described with minor modifications[14],[36]. The assay was performed using recombinant human TOP2A or TOP2B generated using the HEK293F YFP-tag expression system as previously described[18],[19],[36]. Briefly, plasmids encoding YFP-TOP2A or YFP-TOP2B were transfected into HEK293F cells (Catalog number 11625019, Thermofisher Scientific), and TOP2 proteins were isolated from cell lysates by anti-YFP nanobody affinity chromatography. After elution by TEV protease cleavage, TOP2 proteins were FPLC purified by sequential cation exchange and size exclusion chromatography. Plasmid encoding TOP2B C88Y was generated by round-the-horn PCR mutagenesis and the sequence was verified by full-plasmid sequencing. Purified TOP2 proteins were stored in a storage buffer containing 20 mM HEPES pH 7.5, 500 mM NaCl, 0.5 mM TCEP, 25% (v/v) glycerol at -80 °C. For decatenation assays, purified TOP2 proteins were incubated with 200 ng kDNA (Topogen) in a reaction buffer containing 50 mM Tris−HCl (pH 8), 100 mM NaCl, 10 mM MgCl2, 0.5 mM DTT, 2 mM ATP, 0.1 mM tris(2-carboxyethyl)phosphine (TCEP), 5% (v/v) glycerol, 70 μg/mL bovine serum albumin, and 1/10 volume of each compound diluted in 10% DMSO (final DMSO concentration 1%) for 40 min at 37 °C. The reaction was then stopped by the addition of gel loading buffer (0.5 volumes of 60% (w/v) glycerol, 60 mM EDTA, 20 mM Tris−HCl (pH 7.5), 0.5 mg/mL bromophenol blue) and the samples were placed on ice. Reaction products were resolved by agarose gel electrophoresis in TBE buffer containing GelRed stain (Biotium). Gels were visualized using an iBright CL1000 (Thermofisher Scientific). Band intensities were quantified using FIJI, and the signal of the treated samples was normalized to the value of the control (untreated sample; 100%) present on the same gel. The normalized signal of three independent measurements was then expressed as mean ± SD. Each presented data point was obtained from distinct sample. Normalized values were plotted as a function of inhibitor concentration to determine IC50 values by nonlinear regression with variable slope using Prism 9 (GraphPad).

recombinant human TOP2A [2] = biological target: T1, recombinant human TOP2A; experiment: In vitro ATPase activity of TOP2A (coupled assay); format: biochemical
Outline: (§1)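 Recombinant human TOP2A or TOP2B, prediluted to 500 nM in HEPES pH 7.5/500 mM NaCl storage buffer, in an NADH-coupled ATP hydrolysis assay, ATP-initiated at 30 °C. NADH fluorescence decay (ex 340, em 480) read every 30 s for 120 cycles. Slopes background-corrected, normalized to untreated controls, and fitted for IC50.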

recombinant human TOP2B = biological target: T2, recombinant human TOP2B (Homo sapiens, UniProt Q02880); experiment: In vitro ATPase activity of TOP2B (coupled assay); format: biochemical
T2 construct: Using recombinant full-length human TOP2A and TOP2B enzymes; YFP (N, cleaved yes); made in house; host or cells: HEK293F
Outline: as §1

caspase 8 = experiment: Caspase 8 activity in NVCM (Caspase-Glo); format: cell-based, rat; settings: for Csp8 activity: independent replicates
Experimental: Caspase activity was assessed on NVCM cells using luciferase-based kits for caspase 3/7, 8 and 9 (Caspase-Glo® 3/7, 8 and 9 assay systems; Promega) according to the manufacturer’s instructions on 384-well plates (Greiner Bio-One). Luminescence signal was measured using Tecan M200 multifunctional plate-reader. All measured groups were corrected for total protein concentration (BCA assay) and were expressed as fold change of the signal over corresponding untreated control group. Each presented data point was obtained from distinct sample. Statistical significance was determined using ratio paired t-test, two-tailed.

[3] = independent replicates, normalized to 0 drug, read-out: Normalized % TOP2A activity
[4] = independent replicates, read-out: Normalized % TOP2A activity, ATPase

T2 sequence (Q02880 1-1621 isoform Q02880-2): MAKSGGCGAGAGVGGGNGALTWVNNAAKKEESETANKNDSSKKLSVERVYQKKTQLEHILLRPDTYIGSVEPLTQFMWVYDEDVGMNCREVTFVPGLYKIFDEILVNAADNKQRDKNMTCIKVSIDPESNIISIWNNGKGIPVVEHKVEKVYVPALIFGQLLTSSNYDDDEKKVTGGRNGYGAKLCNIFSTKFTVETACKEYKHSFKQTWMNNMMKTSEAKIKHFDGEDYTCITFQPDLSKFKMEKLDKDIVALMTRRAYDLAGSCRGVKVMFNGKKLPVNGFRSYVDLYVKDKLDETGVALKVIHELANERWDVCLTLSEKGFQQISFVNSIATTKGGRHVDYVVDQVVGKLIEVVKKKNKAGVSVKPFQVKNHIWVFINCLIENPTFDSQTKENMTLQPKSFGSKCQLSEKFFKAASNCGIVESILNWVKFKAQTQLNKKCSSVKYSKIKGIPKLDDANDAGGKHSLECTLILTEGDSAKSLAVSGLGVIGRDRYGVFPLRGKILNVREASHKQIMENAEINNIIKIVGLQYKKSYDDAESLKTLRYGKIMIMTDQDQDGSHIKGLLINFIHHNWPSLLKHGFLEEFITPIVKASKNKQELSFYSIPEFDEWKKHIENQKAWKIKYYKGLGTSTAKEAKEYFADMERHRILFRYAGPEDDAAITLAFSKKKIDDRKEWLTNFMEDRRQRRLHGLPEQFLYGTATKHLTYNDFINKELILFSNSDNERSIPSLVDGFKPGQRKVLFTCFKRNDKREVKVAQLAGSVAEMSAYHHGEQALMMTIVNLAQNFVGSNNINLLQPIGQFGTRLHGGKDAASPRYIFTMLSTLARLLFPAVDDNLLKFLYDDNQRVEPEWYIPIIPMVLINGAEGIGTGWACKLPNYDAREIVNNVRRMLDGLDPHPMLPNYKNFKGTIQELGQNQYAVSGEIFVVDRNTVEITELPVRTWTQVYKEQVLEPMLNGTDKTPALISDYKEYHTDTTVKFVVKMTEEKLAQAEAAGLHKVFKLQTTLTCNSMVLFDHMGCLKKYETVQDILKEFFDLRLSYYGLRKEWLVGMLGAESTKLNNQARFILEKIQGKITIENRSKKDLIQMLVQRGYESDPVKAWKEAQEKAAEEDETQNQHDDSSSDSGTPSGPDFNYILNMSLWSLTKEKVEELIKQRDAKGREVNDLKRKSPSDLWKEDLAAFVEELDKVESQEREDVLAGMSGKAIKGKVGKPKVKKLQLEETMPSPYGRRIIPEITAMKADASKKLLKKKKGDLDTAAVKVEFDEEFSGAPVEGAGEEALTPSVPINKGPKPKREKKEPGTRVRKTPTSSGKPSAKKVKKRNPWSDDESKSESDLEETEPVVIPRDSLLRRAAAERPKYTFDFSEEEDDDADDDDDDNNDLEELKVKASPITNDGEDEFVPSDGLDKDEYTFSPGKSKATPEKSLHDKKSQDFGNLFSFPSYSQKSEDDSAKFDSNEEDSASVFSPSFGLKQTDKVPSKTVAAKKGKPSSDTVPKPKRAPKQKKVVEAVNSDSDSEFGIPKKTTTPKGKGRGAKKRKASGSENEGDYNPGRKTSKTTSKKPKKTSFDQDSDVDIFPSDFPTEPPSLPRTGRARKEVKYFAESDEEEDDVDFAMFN
T1 sequence (P11388 whole entry): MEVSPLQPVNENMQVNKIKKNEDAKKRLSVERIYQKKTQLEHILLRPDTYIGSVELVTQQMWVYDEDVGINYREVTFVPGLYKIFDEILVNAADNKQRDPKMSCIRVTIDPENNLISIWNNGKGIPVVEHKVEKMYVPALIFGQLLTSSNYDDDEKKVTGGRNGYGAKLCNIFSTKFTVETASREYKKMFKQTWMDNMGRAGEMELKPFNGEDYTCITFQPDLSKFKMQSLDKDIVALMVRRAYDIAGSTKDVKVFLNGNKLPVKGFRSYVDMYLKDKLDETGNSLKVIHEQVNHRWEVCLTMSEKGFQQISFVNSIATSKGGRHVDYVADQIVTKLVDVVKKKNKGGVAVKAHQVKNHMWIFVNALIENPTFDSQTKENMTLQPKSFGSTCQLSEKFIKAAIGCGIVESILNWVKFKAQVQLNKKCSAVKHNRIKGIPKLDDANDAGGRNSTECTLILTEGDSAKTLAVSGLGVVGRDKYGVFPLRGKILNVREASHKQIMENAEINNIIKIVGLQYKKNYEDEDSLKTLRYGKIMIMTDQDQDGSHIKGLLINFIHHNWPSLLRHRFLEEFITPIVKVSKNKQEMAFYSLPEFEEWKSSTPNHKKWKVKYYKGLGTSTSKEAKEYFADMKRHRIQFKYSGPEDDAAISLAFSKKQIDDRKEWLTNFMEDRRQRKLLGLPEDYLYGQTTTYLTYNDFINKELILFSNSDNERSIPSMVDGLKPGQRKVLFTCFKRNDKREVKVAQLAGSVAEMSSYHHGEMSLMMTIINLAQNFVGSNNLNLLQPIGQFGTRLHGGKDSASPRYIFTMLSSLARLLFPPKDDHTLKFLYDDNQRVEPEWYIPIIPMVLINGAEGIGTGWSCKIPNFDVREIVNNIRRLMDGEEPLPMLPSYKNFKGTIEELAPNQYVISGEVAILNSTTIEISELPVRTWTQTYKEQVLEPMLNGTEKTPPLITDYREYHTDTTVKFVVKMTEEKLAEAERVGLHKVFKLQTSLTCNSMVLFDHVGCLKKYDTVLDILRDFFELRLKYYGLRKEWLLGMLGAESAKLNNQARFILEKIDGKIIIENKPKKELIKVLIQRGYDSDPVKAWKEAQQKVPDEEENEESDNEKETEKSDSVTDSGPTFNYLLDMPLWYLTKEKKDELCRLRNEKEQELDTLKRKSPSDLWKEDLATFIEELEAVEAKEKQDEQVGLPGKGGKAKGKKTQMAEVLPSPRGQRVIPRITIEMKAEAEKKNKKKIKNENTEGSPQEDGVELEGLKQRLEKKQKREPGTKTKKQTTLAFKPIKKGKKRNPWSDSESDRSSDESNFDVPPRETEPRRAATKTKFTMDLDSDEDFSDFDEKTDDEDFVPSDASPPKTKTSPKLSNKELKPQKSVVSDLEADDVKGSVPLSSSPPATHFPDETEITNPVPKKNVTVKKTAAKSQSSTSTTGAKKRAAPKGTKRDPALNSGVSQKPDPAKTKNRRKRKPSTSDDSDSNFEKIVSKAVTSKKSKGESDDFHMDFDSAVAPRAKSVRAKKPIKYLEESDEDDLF

Question: With `CCCc1cc(=O)oc2c(C(=O)N3CCCc4ccccc43)c(OCCN3CCN(C)CC3)ccc12` [topobexin (9)] as the compound, how does the remaining activity at 0.02 µM (recombinant human TOP2A [1]; 0.02 μM, independent replicates, read-out: Normalized % TOP2A activity, decatenation) read?
Answer: 87.1%

Question: And the remaining activity at 0.313 µM (recombinant human TOP2A [1]; 0.313 μM, independent replicates, read-out: Normalized % TOP2A activity, decatenation)?
Answer: 96.1%

Question: What about the remaining activity at 0.625 µM (recombinant human TOP2A [1]; 0.625 μM, independent replicates, read-out: Normalized % TOP2A activity, decatenation) of the same compound?
Answer: 91.5%

Question: And the IC50 (recombinant human TOP2A [1]; enzyme expressed in HEK293F, n=3)?
Answer: 4.8 µM

Question: What about the remaining activity at 0.03125 µM (recombinant human TOP2A [2]; 0.03125 μM, independent replicates, read-out: Normalized % TOP2A activity, ATPase) of the same compound?
Answer: 89.4%

Question: What about the remaining activity at 0.0625 µM (recombinant human TOP2A [2]; [3]) of the same compound?
Answer: 89.1%

Question: What about the remaining activity at 0.0625 µM (recombinant human TOP2A [2]; [4]) of the same compound?
Answer: 92.8%

Question: And the remaining activity at 0.125 µM (recombinant human TOP2A [2]; 0.125 μM, independent replicates, normalized to 0 drug, read-out: Normalized % TOP2A activity)?
Answer: 88.8%

Question: What about the remaining activity at 0.25 µM (recombinant human TOP2A [2]; [3]) of the same compound?
Answer: 87.4%

Question: What about the remaining activity at 0.25 µM (recombinant human TOP2A [2]; [4]) of the same compound?
Answer: 79.6%

Question: What about the remaining activity at 0.5 µM (recombinant human TOP2A [2]; 0.5 μM, independent replicates, normalized to 0 drug, read-out: Normalized % TOP2A activity) of the same compound?
Answer: 81.9%

Question: What about the remaining activity at 1 µM (recombinant human TOP2A [2]; 1 μM, independent replicates, normalized to 0 drug, read-out: Normalized % TOP2A activity) of the same compound?
Answer: 73.3%

Question: And the remaining activity at 2 µM (recombinant human TOP2A [2]; 2 μM, independent replicates, normalized to 0 drug, read-out: Normalized % TOP2A activity)?
Answer: 53.8%

Question: What about the remaining activity at 4 µM (recombinant human TOP2A [2]; 4 μM, independent replicates, normalized to 0 drug, read-out: Normalized % TOP2A activity) of the same compound?
Answer: 26.2%

Question: What about the remaining activity at 8 µM (recombinant human TOP2A [2]; [3]) of the same compound?
Answer: 5.71%

Question: And the remaining activity at 8 µM (recombinant human TOP2A [2]; [4])?
Answer: 28.6%

Question: And the remaining activity at 16 µM (recombinant human TOP2A [2]; 16 μM, independent replicates, read-out: Normalized % TOP2A activity, ATPase)?
Answer: 14.4%

Question: What about the IC50 (recombinant human TOP2A [2]; n=3) of the same compound?
Answer: 4.09 µM

Question: What about the remaining activity at 0.0625 µM (recombinant human TOP2B; 0.0625 μM, independent replicates, normalized to 0 drug, read-out: Normalized % TOP2B activity) of the same compound?
Answer: 96.9%

Question: What about the remaining activity at 0.125 µM (recombinant human TOP2B; 0.125 μM, independent replicates, normalized to 0 drug, read-out: Normalized % TOP2B activity) of the same compound?
Answer: 95.3%

Question: What about the remaining activity at 0.25 µM (recombinant human TOP2B; 0.25 μM, independent replicates, normalized to 0 drug, read-out: Normalized % TOP2B activity) of the same compound?
Answer: 95.6%

Question: What about the remaining activity at 0.5 µM (recombinant human TOP2B; 0.5 μM, independent replicates, normalized to 0 drug, read-out: Normalized % TOP2B activity) of the same compound?
Answer: 87%

Question: What about the remaining activity at 1 µM (recombinant human TOP2B; independent replicates, normalized to 0 drug, read-out: Normalized % TOP2B activity) of the same compound?
Answer: 74%

Question: What about the remaining activity at 1 µM (recombinant human TOP2B; independent replicates, read-out: Normalized % TOP2B activity, ATPase) of the same compound?
Answer: 16.4%

Question: What about the remaining activity at 2 µM (recombinant human TOP2B; 2 μM, independent replicates, normalized to 0 drug, read-out: Normalized % TOP2B activity) of the same compound?
Answer: 48.9%

Question: And the remaining activity at 4 µM (recombinant human TOP2B; 4 μM, independent replicates, normalized to 0 drug, read-out: Normalized % TOP2B activity)?
Answer: 23.7%

Question: And the remaining activity at 8 µM (recombinant human TOP2B; 8 μM, independent replicates, normalized to 0 drug, read-out: Normalized % TOP2B activity)?
Answer: 9.64%

Question: And the “SRbeta (SRTOP2B), TOP2 ATPase activity” value (recombinant human TOP2B; TOP2A IC50 divided by TOP2B IC50)?
Answer: 12

Question: What about the IC50 (recombinant human TOP2B; n=3) of the same compound?
Answer: 0.35 µM

Question: What about the “Csp8 activity, mean” value (caspase 8; Cmpd 9 10 μM + DAU 1.2 μM) of the same compound?
Answer: 1.776 fold change

Question: What about the Csp8 activity (caspase 8; Cmpd 9 10 μM + DAU 1.2 μM) of the same compound?
Answer: 1.323 fold change and 1.259 fold change and 2.008 fold change and 1.4395 fold change and 2.674 fold change and 1.95 fold change

Question: And the “Csp8 activity, mean” value (caspase 8; Cmpd 9 10 μM alone)?
Answer: 1.035 fold change

Question: What about the Csp8 activity (caspase 8; Cmpd 9 10 μM alone) of the same compound?
Answer: 0.9315 fold change and 1.0306 fold change and 0.962 fold change and 0.8268 fold change and 1.054 fold change and 1.403 fold change
